The source of these data is patent US5888995A, “Steroid esters” (priority 1991, dated 1999).

Data set [1] relates to Sephadex induced lung edema (left lung lobe). The data set is described as follows: Desired local antiinflammatory activity on airway mucosa (left lung lobe), Sephadex induced lung edema model, local instillation. The class given is in vivo, Sprague Dawley rats. As to conditions: Rattus norvegicus; in liposomes; instilled into left lung lobe 2 h before Sephadex; dose to reduce the edema by 50%; lungs weighed 20 h after Sephadex; read-out: ED50 (left lung administration) Left lung lobe. Here is the method: (§1) A) Test model for desired local antiinflammatory activity on airway mucosa (left lung lobe).
(§2) Sprague Dawley rats (250 g) were slightly anaesthetized. with Ephrane and the glucocorticosteroid test preparation (in liposomes suspended in saline) in a volume of 0.5 ml/kg was instilled into the left lung lobe only. Two hours later a suspension of Sephadex (5 mg/kg in a volume of 1 ml/kg) was instilled in the trachea well above the bifurcation so that the suspension reached both the left and right lung lobes. Twenty hours later the rats were killed and the left lung lobes dissected out and weighed. Control groups got vehicle instead of glucocorticosteroid preparation and saline instead of Sephadex suspension so that lung weight due to non-drug-treated, Sephadex-induced edema and the normal lung weight could be determined.

Data set [2] relates to Sephadex induced lung edema (lung). The data set is described as follows: Unwanted systemic effect by orally absorbed glucocorticosteroid, Sephadex induced lung edema model, oral administration. The class given is in vivo, Sprague Dawley rats. As to conditions: Rattus norvegicus, 20 h, in liposomes, given orally 2 h before Sephadex, dose to reduce the edema by 50%, read-out: ED50 (p.o. adm.) lung. As for the experimental part:
(§3) B) Test model for unwanted systemic effect by orally absorbed glucocorticosteroid
(§4) Sprague Dawley rats (250 g) were slightly anaesthetized with Ephrane and the GCS test preparation in a volume of 1.0 ml/kg was given orally. Two hours later a suspension of Sephadex (5 mg/kg in a volume of 1 ml/kg) was instilled in the trachea well above the bifurcation so that the suspension reached both the left and the right lung lobes. Twenty hours later, the rats were killed and the lung lobes were weighed. Control groups got vehicle instead of glucocorticosteroid preparation and saline instead of Sephadex suspension so that lung weight due to non-drug-treated, Sephadex-induced edema and the normal lung weight could be determined.

Data set [3] relates to Sephadex induced lung edema. The data set is described as follows: Lung selectivity: ratio of oral and local ED50 in the Sephadex induced lung edema model. In kind it is in vivo, Sprague Dawley rats. As to conditions: in liposomes; ED50 p.o. / ED50 left lung lobe.
From the text: A considerable fraction of inhaled GCS is deposited in the pharynx and is subsequently swallowed, ending up in the gut. This fraction contributes to the unwanted side effects of the steroid since it is acting outside the area (the lung) intended for treatment. Therefore, it is favourable to use a GCS with high local anti-inflammatory activity in the lung but low GCS-induced effects after oral administration. Studies were therefore done in order to determine the GCS-induced effects after local application in the lung as well as after peroral administration, and the differentiation between glucocorticosteroid actions in the treated lung region and outside this area was tested in the following way.
as §1, §2, §3, §4

For data set [4] the following is noted: cited from earlier work; for unwanted GCS actions within the general circulation: highest of the recommended doses for inhalation.

Molecules are shown by their SMILES. Where two headings read alike, the source gives them in different places.

For the compound `CCCCCCCCCCCCCCCC(=O)OCC(=O)[C@@]12OC(CCC)O[C@@H]1C[C@H]1[C@@H]3CCC4=CC(=O)C=C[C@]4(C)[C@H]3[C@@H](O)C[C@@]12C` (stereo partly drawn) [Budesonide-21-palmitate (RS), Budesonide-21-palmitate], the values for the ED50 in data set [1] and in data set [2] were 0.023 µmol/kg and 1.52 µmol/kg, respectively. Also, in data set [3], the “Ratio oral/local administration (ED50)” value was determined as 66.

With `CCCCCCCCCCCCCCCC(=O)OCC(=O)[C@@]12O[C@H](CCC)O[C@@H]1C[C@H]1[C@@H]3C[C@H](F)C4=CC(=O)CC[C@]4(C)[C@@]3(F)[C@@H](O)C[C@@]12C` [Example 1, (22R)-16α,17α-Butylidenedioxy-6α,9α-difluoro-11β-hydroxy-21-palmitoyloxypregn-4-ene-3,20-dione], the figures for the ED50 in data set [1] and in data set [2] were 0.0015 µmol/kg and 0.839 µmol/kg, respectively. The “Ratio oral/local administration (ED50)” value in data set [3] is 559.

On to `CCCCCCCCCCCCCCCC(=O)OCC(=O)[C@@]12O[C@@H](CCC)O[C@@H]1C[C@H]1[C@@H]3C[C@H](F)C4=CC(=O)CC[C@]4(C)[C@@]3(F)[C@@H](O)C[C@@]12C` [Example 3, (22S)-16α,17α-Butylidenedioxy-6α,9α-difluoro-11β-hydroxy-21-palmitoyloxypregn-4-ene-3,20-dione], for which the results for the ED50 in data set [1] and in data set [2] were 0.0035 µmol/kg and 0.554 µmol/kg, respectively. For the same compound, in data set [3], the “Ratio oral/local administration (ED50)” value is on record as 158.

Consider `CCCCCCCCCCCCCCCC(=O)OCC(=O)[C@@]12O[C@H](CCC)O[C@@H]1C[C@H]1[C@@H]3C[C@H](F)C4=CC(=O)C=C[C@]4(C)[C@@]3(F)[C@@H](O)C[C@@]12C` [Example 6, (22R)-16α,17α-Butylidenedioxy-6α,9α-difluoro-11β-hydroxy-21-palmitoyloxypregna-1,4-diene-3,20-dione], for which the ED50 in data set [1] was 0.0018 µmol/kg.

Regarding `CCCCCCCCCCCCCCCC(=O)OCC(=O)[C@@]12O[C@@H](CCC)O[C@@H]1C[C@H]1[C@@H]3C[C@H](F)C4=CC(=O)C=C[C@]4(C)[C@@]3(F)[C@@H](O)C[C@@]12C` [Example 7, (22S)-16α,17α-Butylidenedioxy-6α,9α-difluoro-11β-hydroxy-21-palmitoyloxypregna-1,4-diene-3,20-dione], the ED50 was found to be 0.0023 µmol/kg in data set [1] and 0.568 µmol/kg in data set [2]. For the same compound, the “Ratio oral/local administration (ED50)” value in data set [3] turned out to be 247.

For `CCCCCCCCCCCCCCCC(=O)OCC(=O)[C@@]1(O)[C@H](C)C[C@H]2[C@@H]3C[C@H](F)C4=CC(=O)C=C[C@]4(C)[C@@]3(F)[C@@H](O)C[C@@]21C` [Flumethasone-21-palmitate], the ED50 worked out at 0.0022 µmol/kg in data set [1] and 0.018 µmol/kg in data set [2]. Moreover, in data set [3], the “Ratio oral/local administration (ED50)” value was determined as 8.

Regarding `CCC(=O)OCC(=O)[C@@]1(OC(=O)CC)[C@@H](C)C[C@H]2[C@@H]3CCC4=CC(=O)C=C[C@]4(C)[C@@]3(Cl)[C@@H](O)C[C@@]21C` [beclomethasone 17α,21-dipropionate], the “unwanted GCS actions within the general circulation” value in data set [4] was “unwanted GCS actions within the general circulation have been reported”. Besides, the safety margin result in data set [4] (in vivo) is on record as “rather narrow safety margin”.

In the case of `CCCC1O[C@@H]2C[C@H]3[C@@H]4CCC5=CC(=O)C=C[C@]5(C)[C@H]4[C@@H](O)C[C@]3(C)[C@]2(C(=O)CO)O1` (some centres unmarked) [budesonide], in data set [4], the “unwanted GCS actions within the general circulation” value is listed as “unwanted GCS actions within the general circulation have been reported”. Moreover, the safety margin result in data set [4] (inhaled, clinical use) was “rather narrow safety margin”.
